From patent publication US10632172B2, “Injectable self-assembling antibacterial peptide hydrogels” (New Jersey Institute of Technology, priority 2018, dated 2020)
“And” between values parts separate entries of the source, which are not always exact repeats. Equal values may be shown once. “Also recorded” adds a separate entry of the source.

Experiments:
[1] = Rheology of CASP hydrogels/solutions (strain sweep, shear recovery); assay type: physicochemical; details: for storage modulus (G') at 1% strain: 2% w/v hydrogels/solutions
Protocol: For rheology, 2% peptide hydrogel was transferred between a plate and a 4 mm parallel plate geometry with a gap of 350 μm, on a Malvern Kinexus Ultra+rheometer. Strain sweep (0.1-100% strain at 1 Hz) and shear recovery (1% strain at 1 Hz for 5 min, 100% strain at 1 Hz for 1 min, and 1% strain at 1 Hz for 5 min) were carried out.

[2] = tested on: Pseudomonas aeruginosa PAO1; assay: Colony disruption on agar plates (inhibition zones, SEM); assay type: cell-based; details: P. aeruginosa PAO1 on agar, peptide hydrogels/solutions applied, overnight
Protocol: Colonies of the gram-negative bacteria Pseudomonas aeruginosa PAO1 were grown on agar and CASP solutions were applied to assess their colony-disruption ability (FIGS. 9A-9E). Cationic amphiphilic peptide nanofibers show noticeable bactericidal effect. This effect was correlated with the terminal charge on the cationic nanofibers (FIGS. 9C-9D), consistent with the hypothesis that a greater terminal charge facilitates the association of the peptide nanofibrils with the bacterial cell membrane.
To test the efficacy of CASPs against bacterial colonies, Pseudomonas aeruginosa (PAO1) were cultured on agar plates and peptide hydrogels/solutions were placed on these bacteria cultures during the exponential growth phase to evaluate the antibacterial properties. The experiment to test antibacterial activity of the peptides was carried out over 4 days. On day 1, an agar plate was streaked with the bacteria using an inoculating loop. The streaked plate was then kept in an incubator to allow for bacterial growth overnight. Day 2 consisted of inoculating one colony of bacteria from the streaked plate into a glass tube filled with 5 mL of the Luria-Bertani (LB) broth. The tube is then set aside to allow for the colony to grow overnight in the LB broth. The following day the agar plates were labeled with the type of bacteria, concentration used, treatment being tested, and the date. […]

[3] = In vivo subcutaneous implantation of hydrogel, histology; set-up: species or system Wistar rats
Protocol: To test the in vivo persistence of the peptide, Wistar rats were subcutaneously injected with 200 μL CASP-K6 hydrogel (2% w/v). Because of the thixotropic nature of the hydrogel, it reconstituted post-injection in the subcutaneous pocket. At prescribed time intervals (1, 3, and 7 days), the rats were sacrificed and the dorsal skin covering the implant was removed for histological examination. Used was hematoxylin and eosin (H&E) FIGS. 15A-15B, and Masson's trichrome staining FIGS. 15C-15D) to analyze the tissue sections.
For in vivo subcutaneous implantations, NJIT-Rutgers animal care facility was used. Injected was ˜200 μL CASP-K6 hydrogels in the subcutaneous pocket (dorsal aspect) of female Wistar rats (˜250 g, Charles River) (four implants (n=4) per rat). At the specified time points (1 day, 3 day, and 7 day), the animals were sacrificed and regions around the implant were excised, fixed, and processed. Hematoxylin and eosin (H&E) and Masson's trichrome staining was used for histologic analysis.

[4] = tested on: NIH 3T3 fibroblasts; assay: In vitro cytocompatibility (LIVE/DEAD viability/cytotoxicity kit); assay type: cell-based; details: 0.002% peptide in media, day 3
Protocol: For in vitro cytocompatibility tests, cultured were NIH 3T3 fibroblasts in DMEM supplemented with 10% FBS and 1× penicillin-streptomycin in T75 flasks. After the fibroblasts reached confluency, they were seeded in a 96-well plate at 2,500 cells/well. 0.002% CASP-K6 (n=6) and a control (media with sucrose and phosphate-buffered saline (PBS), n=6) were tested. For the former, the peptide was supplemented in the media, and for the control, 298 mM sucrose and PBS was supplemented to the media. The sucrose and PBS supplemented in the media control corresponded to the quantities required to formulate CASP-K6. Media was changed daily for 3 days and cytocompatibility was assessed on day 3 using a LIVE/DEAD viability/cytotoxicity kit (images were taken on a Nikon Eclipse Ti—S inverted fluorescent microscope). A NIH ImageJ was used to quantify cell viability.

[5] = Hydrogel formation after addition of 10xPBS to 2% (w/v) peptide solution in 298 mM sucrose; assay type: physicochemical; details: 2% (w/v) in 298 mM sucrose, 10xPBS pH 7 added 1:9
Protocol: In one example, after purification and lyophilization, the peptides are dissolved in 298 mM sucrose solution to prepare 2% (w/v) solutions. After the addition of 10×PBS (pH 7) to the peptide solution (in a 1:9 volumetric ratio), hydrogels form within seconds. Biofilms of the gram-negative bacteria Pseudomonas putida are grown on agar plates and CASP solutions are applied on top of established biofilms to test their ability to disrupt the bacterial colony. Cationic amphiphilic peptide nanofibers show noticeable bactericidal effect on biofilms. This effect is correlated with the terminal charge on the cationic nanofibers, consistent with initial hypothesis contained herein that higher terminal charge facilitates the association of the peptide nanofibrils with the bacterial cell membrane. The effect of the antibacterial hydrogel is localized on the biofilm.
In this example, a series of CASPs was explored. The series of CASPs were synthesized through solid-phase peptide synthesis and verified by mass spectrometry as shown in FIGS. 3A-3D. After purification and lyophilisation, the peptides were dissolved in 298 mM sucrose solution to prepare 2% (w/v) solutions. After the addition of 10×PBS (pH 7) to the peptide solution (in a 1:9 volumetric ratio), CASP-K2 through CASP-K6 formed hydrogels within seconds.

[6] = cited from earlier work

Substance: Ac-KKKKKKSLSLSLSLSLSLKKKKKK-NH2 [CASP-K6]
- storage modulus (G') at 1% strain [1]: ~210 Pa
- storage modulus of hydrogel (rheometry) ([1]; strain not stated): > 100 Pa and > 200 Pa
- shear strain at which the gel liquefied (G'<G'') ([1]; strain sweep): > 30 % strain
- disruption of bacterial colonies / antibacterial activity [2]: very effective in disrupting the bacterial layer; also recorded: comparable antibacterial activity
- in vivo persistence ([3]; rat, in vivo, sc): persists in vivo
- in vivo persistence of subcutaneous implant (remained observable) ([3]; rat, in vivo, sc): at least 7 days
- local/systemic toxicity or mortality ([3]; subcutaneous implants in rats, up to 7 days): did not induce any local/systemic toxicity or mortality
- toxicity with respect to mammalian cells (cytocompatibility) [4]: low toxicity

Substance: KKKKKKKKSLSLSLSLSLSLKKKKKKKK (CASP-K8) [cationic amphiphilic self-assembling peptide]
- storage modulus (G') at 1% strain [1]: ~30 Pa
- disruption of bacterial colonies / antibacterial activity [2]: very effective in disrupting the bacterial layer
- hydrogel formation [5]: failed to form a gel; also recorded: remained in solution

Substance: KKKKSLSLSLSLSLSLKKKK (CASP-K4) [cationic amphiphilic self-assembling peptide]
- storage modulus (G') at 1% strain [1]: ~430 Pa

Substance: KKSLSLSLSLSLSLKK (CASP-K2) [cationic amphiphilic self-assembling peptide, previously reported as a multifunctional scaffold]
- storage modulus (G') at 1% strain [1]: ~620 Pa

Substance: LL-37: natural antimicrobial peptide
- enzymatic degradation in vivo [6]: susceptible to enzymatic degradation in vivo within a time period of hours
